In brackets after ≈: the same amount, converted by molar mass.
Experiments:
[1] = target: T1, Cannabinoid receptor 1 (Homo sapiens, UniProt P21554); test: Binding affinity to CB1 (unknown origin) receptor assessed as inhibition constant
[2] = target: T2, Cannabinoid receptor 2 (Homo sapiens, UniProt P34972); test: Binding affinity to human CB2 receptor assessed as inhibition constant
[3] = target: T3, Transient receptor potential cation channel subfamily V member 1 (Homo sapiens, UniProt Q8NER1); test: Agonist activity at ionomycin-stimulated TRPV1 (unknown origin) activation assessed as efficacy relative to control
T3 sequence (Q8NER1 whole entry): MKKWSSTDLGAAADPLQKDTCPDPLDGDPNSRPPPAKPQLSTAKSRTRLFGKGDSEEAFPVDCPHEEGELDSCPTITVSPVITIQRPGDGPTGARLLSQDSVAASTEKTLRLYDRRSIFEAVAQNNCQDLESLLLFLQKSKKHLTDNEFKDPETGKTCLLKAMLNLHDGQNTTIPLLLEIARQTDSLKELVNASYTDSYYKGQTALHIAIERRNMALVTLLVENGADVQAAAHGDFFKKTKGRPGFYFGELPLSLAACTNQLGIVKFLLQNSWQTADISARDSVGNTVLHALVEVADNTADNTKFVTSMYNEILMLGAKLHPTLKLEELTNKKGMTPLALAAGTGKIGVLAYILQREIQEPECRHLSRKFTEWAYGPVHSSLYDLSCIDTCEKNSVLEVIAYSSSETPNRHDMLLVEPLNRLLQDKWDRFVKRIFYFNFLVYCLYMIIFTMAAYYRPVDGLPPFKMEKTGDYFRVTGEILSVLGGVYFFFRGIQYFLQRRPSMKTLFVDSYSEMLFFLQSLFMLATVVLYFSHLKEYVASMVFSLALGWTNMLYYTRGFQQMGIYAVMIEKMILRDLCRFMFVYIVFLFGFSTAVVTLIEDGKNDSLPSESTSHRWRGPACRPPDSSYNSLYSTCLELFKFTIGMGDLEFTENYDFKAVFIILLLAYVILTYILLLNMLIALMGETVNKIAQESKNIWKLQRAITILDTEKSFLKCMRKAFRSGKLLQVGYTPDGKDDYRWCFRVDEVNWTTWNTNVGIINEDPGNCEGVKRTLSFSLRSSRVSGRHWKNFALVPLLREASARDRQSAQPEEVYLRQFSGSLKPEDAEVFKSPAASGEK

[4] = target: T3, Transient receptor potential cation channel subfamily V member 1; test: Agonist activity at ionomycin-stimulated TRPV1 (unknown origin) channel desensitization in presence of capsaicin
[5] = target: T4, Transient receptor potential cation channel subfamily V member 2 (Homo sapiens, UniProt Q9Y5S1); test: Agonist activity at ionomycin-stimulated TRPV2 (unknown origin) activation
T4 sequence (Q9Y5S1 whole entry): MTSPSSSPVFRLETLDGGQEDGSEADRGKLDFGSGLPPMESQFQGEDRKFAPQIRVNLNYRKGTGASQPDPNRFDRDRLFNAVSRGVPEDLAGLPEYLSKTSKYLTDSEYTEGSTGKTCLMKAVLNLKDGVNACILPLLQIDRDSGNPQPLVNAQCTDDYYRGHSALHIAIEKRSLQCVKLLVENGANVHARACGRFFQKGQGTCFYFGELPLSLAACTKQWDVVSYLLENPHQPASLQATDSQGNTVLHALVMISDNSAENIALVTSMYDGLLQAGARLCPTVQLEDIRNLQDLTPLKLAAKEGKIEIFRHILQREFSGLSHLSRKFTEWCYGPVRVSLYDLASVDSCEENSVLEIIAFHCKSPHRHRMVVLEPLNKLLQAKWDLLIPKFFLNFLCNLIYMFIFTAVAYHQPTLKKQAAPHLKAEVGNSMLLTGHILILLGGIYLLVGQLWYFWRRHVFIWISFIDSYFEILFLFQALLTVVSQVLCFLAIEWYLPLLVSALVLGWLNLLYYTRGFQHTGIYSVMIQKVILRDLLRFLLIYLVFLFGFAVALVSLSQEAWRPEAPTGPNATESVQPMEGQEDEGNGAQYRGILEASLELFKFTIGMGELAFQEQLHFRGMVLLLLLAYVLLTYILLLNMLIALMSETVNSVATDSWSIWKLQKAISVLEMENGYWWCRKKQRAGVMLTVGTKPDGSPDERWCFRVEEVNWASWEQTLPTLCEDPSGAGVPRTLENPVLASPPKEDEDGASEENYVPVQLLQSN

[6] = target: T5, Transient receptor potential cation channel subfamily V member 2 (Homo sapiens) (UniProt Q9Y5S1); test: Agonist activity at ionomycin-stimulated TRPV2 (unknown origin) activation assessed as efficacy relative to control; conditions: filed as agonist
T5 sequence (whole entry): T4 sequence (Q9Y5S1 whole entry)

[7] = target: T4, Transient receptor potential cation channel subfamily V member 2; test: Agonist activity at ionomycin-stimulated TRPV2 (unknown origin) channel desensitization in presence of lysophosphatidylcholine
[8] = target: T6, Transient receptor potential cation channel subfamily V member 3 (Homo sapiens, UniProt Q8NET8); test: Agonist activity at ionomycin-stimulated TRPV3 (unknown origin) activation
T6 sequence (Q8NET8 whole entry): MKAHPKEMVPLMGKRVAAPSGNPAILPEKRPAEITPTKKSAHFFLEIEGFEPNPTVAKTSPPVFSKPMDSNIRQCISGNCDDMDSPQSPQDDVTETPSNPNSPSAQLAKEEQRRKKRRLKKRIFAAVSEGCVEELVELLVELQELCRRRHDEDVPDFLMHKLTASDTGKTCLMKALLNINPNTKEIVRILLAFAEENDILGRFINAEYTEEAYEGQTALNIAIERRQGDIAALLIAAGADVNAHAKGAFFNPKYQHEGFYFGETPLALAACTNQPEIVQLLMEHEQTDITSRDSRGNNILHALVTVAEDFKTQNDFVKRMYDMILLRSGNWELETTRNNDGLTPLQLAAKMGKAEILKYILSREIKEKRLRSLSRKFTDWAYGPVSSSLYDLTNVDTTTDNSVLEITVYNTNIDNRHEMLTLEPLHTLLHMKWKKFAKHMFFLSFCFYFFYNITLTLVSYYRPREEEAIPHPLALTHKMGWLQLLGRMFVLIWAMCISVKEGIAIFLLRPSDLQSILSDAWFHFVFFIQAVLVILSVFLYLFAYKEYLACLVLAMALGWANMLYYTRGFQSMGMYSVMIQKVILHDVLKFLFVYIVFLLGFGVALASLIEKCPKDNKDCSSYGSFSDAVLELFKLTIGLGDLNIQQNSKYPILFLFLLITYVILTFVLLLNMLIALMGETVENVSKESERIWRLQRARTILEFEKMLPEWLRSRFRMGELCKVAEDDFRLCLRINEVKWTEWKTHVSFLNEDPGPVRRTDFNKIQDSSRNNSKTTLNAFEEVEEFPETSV

[9] = target: T7, Transient receptor potential cation channel subfamily V member 3 (Homo sapiens) (UniProt Q8NET8); test: Agonist activity at ionomycin-stimulated TRPV3 (unknown origin) activation assessed as efficacy relative to control
T7 sequence (whole entry): T6 sequence (Q8NET8 whole entry)

[10] = target: T6, Transient receptor potential cation channel subfamily V member 3; test: Agonist activity at ionomycin-stimulated TRPV3 (unknown origin) channel desensitization in presence of carvacrol
[11] = target: T8, Transient receptor potential cation channel subfamily V member 4 (Homo sapiens, UniProt Q9HBA0); test: Agonist activity at ionomycin-stimulated TRPV4 (unknown origin) activation
T8 sequence (Q9HBA0 whole entry): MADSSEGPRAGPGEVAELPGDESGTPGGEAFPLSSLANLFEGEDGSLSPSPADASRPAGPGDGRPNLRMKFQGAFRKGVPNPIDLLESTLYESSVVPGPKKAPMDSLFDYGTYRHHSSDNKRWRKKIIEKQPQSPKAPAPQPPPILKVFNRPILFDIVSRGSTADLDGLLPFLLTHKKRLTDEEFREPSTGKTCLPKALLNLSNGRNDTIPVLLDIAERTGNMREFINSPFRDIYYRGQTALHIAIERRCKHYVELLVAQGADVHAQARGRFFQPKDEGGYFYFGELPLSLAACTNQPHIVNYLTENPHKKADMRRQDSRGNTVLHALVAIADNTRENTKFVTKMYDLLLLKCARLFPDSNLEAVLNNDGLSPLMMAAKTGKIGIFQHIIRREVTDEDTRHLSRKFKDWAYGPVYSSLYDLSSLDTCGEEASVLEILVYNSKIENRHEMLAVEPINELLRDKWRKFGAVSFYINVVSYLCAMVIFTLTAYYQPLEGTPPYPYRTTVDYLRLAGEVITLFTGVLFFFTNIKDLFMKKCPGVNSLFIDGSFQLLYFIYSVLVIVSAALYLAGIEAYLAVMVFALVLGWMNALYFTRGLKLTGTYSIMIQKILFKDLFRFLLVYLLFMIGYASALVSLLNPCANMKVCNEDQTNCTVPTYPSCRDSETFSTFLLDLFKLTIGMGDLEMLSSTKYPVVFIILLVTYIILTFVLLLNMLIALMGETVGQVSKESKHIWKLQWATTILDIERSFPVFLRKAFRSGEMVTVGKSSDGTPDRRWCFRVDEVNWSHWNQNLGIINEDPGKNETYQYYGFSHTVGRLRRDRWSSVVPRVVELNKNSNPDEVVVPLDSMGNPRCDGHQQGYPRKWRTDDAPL

[12] = target: T8, Transient receptor potential cation channel subfamily V member 4; test: Agonist activity at ionomycin-stimulated TRPV4 (unknown origin) activation assessed as efficacy relative to control
[13] = target: T8, Transient receptor potential cation channel subfamily V member 4; test: Agonist activity at ionomycin-stimulated TRPV4 (unknown origin) channel desensitization in presence of 4alphaPDD
[14] = target: T9, Transient receptor potential cation channel subfamily A member 1 (Homo sapiens, UniProt O75762); test: Agonist activity at TRPA1 (unknown origin) activation
T9 sequence (O75762 whole entry): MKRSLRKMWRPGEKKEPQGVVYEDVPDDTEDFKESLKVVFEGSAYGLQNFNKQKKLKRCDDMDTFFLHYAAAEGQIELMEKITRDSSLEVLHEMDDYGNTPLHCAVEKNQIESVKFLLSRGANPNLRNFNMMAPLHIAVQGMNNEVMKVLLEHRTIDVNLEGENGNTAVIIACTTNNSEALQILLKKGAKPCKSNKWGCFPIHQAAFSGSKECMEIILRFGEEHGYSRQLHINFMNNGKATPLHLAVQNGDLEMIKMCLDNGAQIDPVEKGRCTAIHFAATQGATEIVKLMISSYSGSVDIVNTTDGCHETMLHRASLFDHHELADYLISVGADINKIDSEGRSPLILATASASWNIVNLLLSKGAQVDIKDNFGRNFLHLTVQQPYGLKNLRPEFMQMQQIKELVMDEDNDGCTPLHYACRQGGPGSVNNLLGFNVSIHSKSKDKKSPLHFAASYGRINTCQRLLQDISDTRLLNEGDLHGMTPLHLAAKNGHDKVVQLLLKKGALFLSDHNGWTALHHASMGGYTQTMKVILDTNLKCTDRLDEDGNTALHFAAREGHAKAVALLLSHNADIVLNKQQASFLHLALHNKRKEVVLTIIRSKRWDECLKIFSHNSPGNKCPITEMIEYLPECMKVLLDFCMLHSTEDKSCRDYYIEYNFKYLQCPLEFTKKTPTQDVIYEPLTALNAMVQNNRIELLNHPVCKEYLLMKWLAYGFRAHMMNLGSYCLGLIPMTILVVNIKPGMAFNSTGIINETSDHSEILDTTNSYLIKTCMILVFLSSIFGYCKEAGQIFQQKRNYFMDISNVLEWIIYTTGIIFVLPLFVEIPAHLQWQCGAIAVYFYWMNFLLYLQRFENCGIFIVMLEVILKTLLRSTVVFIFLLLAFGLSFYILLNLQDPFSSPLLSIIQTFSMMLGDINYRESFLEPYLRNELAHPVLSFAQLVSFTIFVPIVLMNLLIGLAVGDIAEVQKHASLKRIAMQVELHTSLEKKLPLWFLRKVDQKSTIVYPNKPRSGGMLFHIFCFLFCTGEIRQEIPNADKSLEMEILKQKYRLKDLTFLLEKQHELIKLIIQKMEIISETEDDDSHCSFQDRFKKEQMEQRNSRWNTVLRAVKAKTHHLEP

[15] = target: T9, Transient receptor potential cation channel subfamily A member 1; test: Agonist activity at TRPA1 (unknown origin) activation assessed as efficacy relative to control; conditions: filed as agonist
[16] = target: T9, Transient receptor potential cation channel subfamily A member 1; test: Agonist activity at TRPA1 (unknown origin) channel desensitization in presence of isothiocyanate
[17] = target: T9, Transient receptor potential cation channel subfamily A member 1; test: Agonist activity at TRPA1 (unknown origin) channel desensitization in presence of icilin
[18] = target: T1, Cannabinoid receptor 1; test: Binding affinity to CB1 (unknown origin) assessed as inhibition constant
[19] = target: T1, Cannabinoid receptor 1; test: Binding affinity to CB1 (unknown origin) expressed in CHO -k1 cells assessed as inhibition constant; type: cell-based
[20] = target: T2, Cannabinoid receptor 2; test: Binding affinity to CB2 receptor (unknown origin) expressed in CHO -k1 cells assessed as inhibition constant; type: cell-based
[21] = target: T2, Cannabinoid receptor 2; test: Binding affinity to CB2 receptor (unknown origin) expressed in AtT20 cells assessed as inhibition constant; type: cell-based
[22] = system: HT-22; test: Neuroprotection against glutamate-induced oxytosis in mouse HT-22 cells assessed as cell viability; type: functional, cell-based
[23] = system: Staphylococcus aureus; test: Antibacterial activity against methicillin-resistant Staphylococcus aureus; type: functional
[24] = target: Cytochrome P450 2J2 (Homo sapiens, UniProt P51589); test: Non competitive inhibition of CYP2J2 (unknown origin) in presence of NADPH by LC-MS/MS analysis; type: ADME
[25] = target: T10, Cytochrome P450 2A6 (Homo sapiens, UniProt P11509); test: Non competitive inhibition of recombinant human CYP2A6 using coumarin as substrate preincubated with NADPH for 20 mins and measured after 30 min; type: ADME
T10 sequence (P11509 whole entry): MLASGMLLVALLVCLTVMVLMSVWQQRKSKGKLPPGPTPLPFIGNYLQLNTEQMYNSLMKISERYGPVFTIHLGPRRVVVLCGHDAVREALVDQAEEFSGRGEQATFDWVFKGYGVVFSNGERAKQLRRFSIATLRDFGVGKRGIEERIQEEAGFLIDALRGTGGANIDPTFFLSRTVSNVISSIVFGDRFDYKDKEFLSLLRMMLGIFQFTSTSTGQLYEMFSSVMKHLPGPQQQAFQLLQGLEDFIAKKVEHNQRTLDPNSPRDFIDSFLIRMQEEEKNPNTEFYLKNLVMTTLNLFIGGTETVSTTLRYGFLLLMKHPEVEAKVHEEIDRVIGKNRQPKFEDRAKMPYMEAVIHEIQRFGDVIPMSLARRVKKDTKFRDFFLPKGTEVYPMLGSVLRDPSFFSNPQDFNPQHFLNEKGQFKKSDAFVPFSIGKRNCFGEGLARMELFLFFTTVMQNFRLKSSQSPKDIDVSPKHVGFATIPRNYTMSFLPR

[26] = target: T10, Cytochrome P450 2A6; test: Non competitive inhibition of recombinant human CYP2A6 using coumarin as substrate preincubated with NADPH for 20 mins and measured after 30 min by Lineweaver-burk plots analysis; type: ADME
[27] = target: T11, Cytochrome P450 2B6 (Homo sapiens, UniProt P20813); test: Mixed inhibition of recombinant human CYP2B6 using coumarin as substrate preincubated with NADPH for 20 mins and measured after 30 min by Lineweaver-burk plots analysis; type: ADME
T11 sequence (P20813 whole entry): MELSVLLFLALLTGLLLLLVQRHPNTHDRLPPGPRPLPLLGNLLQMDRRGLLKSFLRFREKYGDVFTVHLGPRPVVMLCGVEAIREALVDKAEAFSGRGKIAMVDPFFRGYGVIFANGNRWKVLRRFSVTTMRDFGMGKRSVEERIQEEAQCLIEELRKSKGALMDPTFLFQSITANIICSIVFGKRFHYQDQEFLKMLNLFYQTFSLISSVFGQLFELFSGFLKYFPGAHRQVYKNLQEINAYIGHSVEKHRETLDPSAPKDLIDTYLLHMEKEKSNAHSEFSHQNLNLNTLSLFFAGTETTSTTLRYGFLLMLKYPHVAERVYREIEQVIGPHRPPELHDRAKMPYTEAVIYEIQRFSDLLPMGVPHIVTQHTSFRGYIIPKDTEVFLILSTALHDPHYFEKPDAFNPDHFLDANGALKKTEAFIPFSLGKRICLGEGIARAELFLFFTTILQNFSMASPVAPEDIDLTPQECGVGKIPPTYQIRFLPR

[28] = target: T11, Cytochrome P450 2B6; test: Inhibition of recombinant human CYP2B6 using coumarin as substrate preincubated with NADPH for 20 mins and measured after 30 min by Lineweaver-burk plots analysis; type: ADME
[29] = target: Cannabinoid receptor 1 (Mus musculus) (UniProt P47746); test: Agonist activity at CB1 receptor in albino MF1 mouse vas deferens assessed as inhibition of electrically evoked vas deferens contraction by incubated for 13 mins followed by electrical stimulation for 2 mins; type: functional; conditions: filed as antagonist, time 15.0 min
Sequence of Cannabinoid receptor 1 (Mus musculus) (P47746 whole entry): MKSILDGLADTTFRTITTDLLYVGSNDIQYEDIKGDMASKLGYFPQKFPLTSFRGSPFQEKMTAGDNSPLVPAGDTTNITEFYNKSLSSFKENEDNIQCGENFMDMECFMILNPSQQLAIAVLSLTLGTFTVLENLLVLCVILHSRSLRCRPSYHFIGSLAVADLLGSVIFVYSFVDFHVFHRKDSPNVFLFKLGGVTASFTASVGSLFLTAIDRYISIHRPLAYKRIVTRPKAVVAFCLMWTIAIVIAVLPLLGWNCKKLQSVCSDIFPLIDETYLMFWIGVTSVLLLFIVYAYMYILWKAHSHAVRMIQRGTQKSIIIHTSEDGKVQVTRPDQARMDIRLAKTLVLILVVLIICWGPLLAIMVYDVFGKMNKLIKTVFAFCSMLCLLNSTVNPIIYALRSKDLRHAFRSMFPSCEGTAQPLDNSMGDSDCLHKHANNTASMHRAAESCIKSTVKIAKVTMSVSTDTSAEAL

[30] = target: T1, Cannabinoid receptor 1; test: Displacement of [3H]-WIN55212-2 from human CB1 receptor transfected in CHO cell membrane incubated for 90 mins by Liquid scintillation counter analysis; type: cell membranes
[31] = target: Cannabinoid receptor 1 (Rattus norvegicus, UniProt P20272); test: Displacement of [35S]GTPgammaS from CB1 receptor in rat brain; type: tissue-based
Sequence of Cannabinoid receptor 1 (Rattus norvegicus, UniProt P20272) (P20272 whole entry): as the sequence (P47746 whole entry) above, with D95E counted along it

[32] = target: T1, Cannabinoid receptor 1; test: Displacement of [35S]GTPgammaS from human CB1 receptor expressed in CHO cells; type: cell-based
[33] = Agonist activity at CB2 receptor in albino MF1 mouse vas deferens assessed as inhibition of electrically evoked vas deferens contraction by incubated for 13 mins followed by electrical stimulation for 2 mins
[34] = target: Alpha-2A adrenergic receptor (Homo sapiens) (UniProt P08913); test: Displacement of [35S]GTPgammaS from human alpha2-adreno receptor receptor expressed in CHO cells; type: cell-based
[35] = system: Staphylococcus aureus; test: Antibiofilm activity against methicillin-resistant Staphylococcus aureus USA300 incubated for 24 hrs by crystal violet staining based assay; type: functional
[36] = system: Staphylococcus aureus; test: Antibiofilm activity against methicillin-resistant Staphylococcus aureus USA300 incubated for 24 hrs by CLSI based assay; type: functional
[37] = system: Staphylococcus aureus; test: Antibacterial activity against methicillin-resistant Staphylococcus aureus USA300 infected in mouse assessed as log10 reduction in bacterial load in spleen at 100 mg/kg ,ip measured for 30 mins; type: functional; conditions: 0.5 h
[38] = system: Escherichia coli; test: […] activity against Escherichia coli in presence of polymyxin; type: functional

T1 sequence (P21554 whole entry): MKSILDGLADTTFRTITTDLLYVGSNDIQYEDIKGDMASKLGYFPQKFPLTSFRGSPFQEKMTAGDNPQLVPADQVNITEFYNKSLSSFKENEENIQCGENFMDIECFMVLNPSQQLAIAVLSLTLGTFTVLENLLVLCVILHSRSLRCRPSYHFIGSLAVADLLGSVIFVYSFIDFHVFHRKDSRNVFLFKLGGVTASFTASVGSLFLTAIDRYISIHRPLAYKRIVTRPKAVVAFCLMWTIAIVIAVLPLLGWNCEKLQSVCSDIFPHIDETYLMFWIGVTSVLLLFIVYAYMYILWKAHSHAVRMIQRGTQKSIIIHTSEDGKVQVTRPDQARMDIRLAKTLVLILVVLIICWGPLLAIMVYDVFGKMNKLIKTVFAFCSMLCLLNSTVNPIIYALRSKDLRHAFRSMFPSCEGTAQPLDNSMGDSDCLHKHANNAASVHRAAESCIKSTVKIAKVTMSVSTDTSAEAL
T2 sequence (P34972 whole entry): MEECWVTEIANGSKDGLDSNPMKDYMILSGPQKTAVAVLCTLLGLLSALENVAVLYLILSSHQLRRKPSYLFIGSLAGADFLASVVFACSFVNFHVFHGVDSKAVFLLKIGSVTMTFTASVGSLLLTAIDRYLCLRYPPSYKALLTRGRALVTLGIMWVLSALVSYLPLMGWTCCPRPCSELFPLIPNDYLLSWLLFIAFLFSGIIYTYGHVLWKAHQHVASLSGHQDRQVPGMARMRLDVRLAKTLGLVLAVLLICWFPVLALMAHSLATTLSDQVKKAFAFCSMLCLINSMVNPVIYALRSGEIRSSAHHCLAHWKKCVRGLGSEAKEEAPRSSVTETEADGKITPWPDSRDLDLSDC

Structure (SMILES): CCCCCCCc1cc(O)c2c(c1)OC(C)(C)[C@@H]1CCC(C)=C[C@@H]21
- Ki [1]: 130 nM
- Ki [2]: 6.9 nM

Structure (SMILES): CCCCCc1cc(O)c2c(c1)OC(C)(C)c1ccc(C)cc1-2 [CANNABINOL]
- Efficacy [3]: < 10%
- IC50 [4]: 82000 nM
- EC50 [5]: 19000 nM
- Efficacy [6]: 74%
- IC50 [7]: 15700 nM
- EC50 [8]: 5300 nM
- Efficacy ([9]; filed as agonist): 72%
- IC50 [10]: 9400 nM
- EC50 [11]: 16100 nM
- Efficacy ([12]; filed as agonist): 60%
- IC50 [13]: 5400 nM
- EC50 [14]: 180 nM
- Efficacy [15]: 243%
- IC50 [16]: 400 nM
- IC50 [17]: 210 nM
- Ki [18]: 1100 nM
- Ki [19]: 70 nM
- Ki [20]: 70 nM
- Ki [21]: 300 nM
- EC50 [22]: 610 nM
- MIC [23]: 1 µg/mL (≈ 3.22 µM)
- IC50 [24]: 19000 nM
- IC50 [25]: 30400 nM
- Ki [26]: 1000 nM
- Ki [27]: 39000 nM
- Ki [28]: 2550 nM

Structure (SMILES): CCCCCc1cc(O)c(C/C=C(\C)CCC=C(C)C)c(O)c1 [CANNABIGEROL]
- K [29]: 0.38 µM
- Efficacy [3]: 34%
- EC50 [5]: 1700 nM
- Efficacy [6]: 74%
- IC50 [7]: 1500 nM
- EC50 [8]: 1000 nM
- Efficacy [9]: 18%
- IC50 [10]: 66000 nM
- EC50 [11]: 5100 nM
- Efficacy [12]: 24%
- IC50 [13]: 1300 nM
- EC50 [14]: 700 nM
- Efficacy [15]: 100%
- IC50 [16]: 13000 nM
- K [30]: 1.04 µM
- Ki [31]: 440 nM
- Ki [32]: 2600 nM
- Ki [33]: 1100 nM
- EC5 [34]: 0.002 µM
- MIC [35]: 0.5 µg/mL (≈ 1.58 µM)
- MIC90 [35]: 4 µg/mL (≈ 12.6 µM)
- MIC90 [36]: 4 µg/mL (≈ 12.6 µM)
- log(activity) [37]: 2.8
- MIC [38]: 4 µg/mL

Reference: ChEMBL document CHEMBL5096151, “Phytocannabinoid Pharmacology: Medicinal Properties of Cannabis sativa Constituents Aside from the "Big Two"” (J Nat Prod, 2021)
